Source: PubChem BioAssay (NCI)
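Step 1: Grow cells in 96-well plates. Step 2: Expose to compound for 48 hours at 5 concentrations. Step 3: Interpolate endpoints linearly; if unreached, use highest concentration. TGI denotes the concentration required for complete inhibition of growth.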

Experiments:
Assay in all cases: NCI anticancer screen, dose series, 48 h
[1] = tested on: BT-549 breast
[2] = tested on: HCT-116 colon
[3] = tested on: IGROV1 ovarian
[4] = tested on: MCF7 breast
[5] = tested on: MDA-MB-231 breast
[6] = tested on: MDA-N
[7] = tested on: OVCAR-5 ovarian
[8] = tested on: PC-3 prostate
[9] = tested on: RXF 393 renal
[10] = tested on: SK-MEL-2 melanoma
[11] = tested on: SNB-19 CNS
[12] = tested on: UACC-257 melanoma

CN1C/C(=C\c2cccs2)C(O)/C(=C/c2cccs2)C1 (stereo not given)
TGI [1]: > 100 µM
TGI [2]: > 100 µM
TGI [3]: > 100 µM
TGI [4]: > 100 µM
TGI [5]: > 100 µM
TGI [6]: > 100 µM
TGI [7]: > 100 µM
TGI [8]: > 100 µM
TGI [9]: > 100 µM
TGI [10]: > 100 µM
TGI [11]: > 100 µM
TGI [12]: > 100 µM

CC1(C)OC2[C@@H](CO[C@@]3([C@@H](O)CCO)OC(C)(C)O[C@@H]23)O1 (stereo not given in full)
TGI [1]: > 100 µM
TGI [2]: > 100 µM
TGI [3]: > 100 µM
TGI [4]: > 100 µM
TGI [5]: > 100 µM
TGI [6]: > 100 µM
TGI [7]: > 100 µM
TGI [8]: > 100 µM
TGI [9]: > 100 µM
TGI [10]: > 100 µM
TGI [11]: > 100 µM
TGI [12]: > 100 µM

CCOC(=O)c1nnsc1N/N=C\c1ccc([N+](=O)[O-])cc1
TGI [1]: > 100 µM
TGI [2]: > 100 µM
TGI [3]: > 100 µM
TGI [4]: > 100 µM
TGI [5]: > 100 µM
TGI [6]: > 100 µM
TGI [7]: > 100 µM
TGI [8]: > 100 µM
TGI [9]: > 100 µM
TGI [10]: > 100 µM
TGI [11]: > 100 µM
TGI [12]: > 100 µM

Clc1ccc(C(c2ccccc2Cl)C(Cl)Cl)cc1 (stereo not given)
TGI [1]: 30.2 µM
TGI [2]: 31.4 µM
TGI [3]: 30.7 µM
TGI [4]: 37.8 µM
TGI [5]: 35.2 µM
TGI [6]: 35.1 µM
TGI [7]: 33.9 µM
TGI [8]: 35.5 µM
TGI [9]: 30.9 µM
TGI [10]: 35.8 µM
TGI [11]: 37.6 µM
TGI [12]: 37.2 µM

Cc1nc(C)c(N2CCN(S(=O)(=O)N(Cc3ccccc3)Cc3ccccc3)CC2)c(=O)[nH]1
TGI [1]: > 100 µM
TGI [2]: > 100 µM
TGI [3]: > 100 µM
TGI [4]: > 100 µM
TGI [5]: > 64.5 µM
TGI [6]: > 100 µM
TGI [7]: > 100 µM
TGI [8]: > 100 µM
TGI [9]: 38 µM
TGI [10]: > 100 µM
TGI [11]: 27.6 µM
TGI [12]: > 100 µM

CCCC(CCC(N)=O)(CCC(N)=O)[N+](=O)[O-]
TGI [1]: > 100 µM
TGI [2]: > 100 µM
TGI [3]: > 100 µM
TGI [4]: > 100 µM
TGI [5]: > 100 µM
TGI [6]: > 100 µM
TGI [7]: > 100 µM
TGI [8]: > 100 µM
TGI [9]: > 100 µM
TGI [10]: > 100 µM
TGI [11]: > 100 µM
TGI [12]: > 100 µM

Cc1cc2/c(=C\c3ccc(N(C)C)cc3)c3ccccc3n2[n+]1C
TGI [1]: 5.99 µM
TGI [2]: 2.55 µM
TGI [3]: 6.76 µM
TGI [4]: 6.55 µM
TGI [5]: 3.66 µM
TGI [6]: 1.58 µM
TGI [7]: 21.3 µM
TGI [8]: 2.38 µM
TGI [9]: 10.4 µM
TGI [10]: 2.08 µM
TGI [11]: 4.52 µM
TGI [12]: 1.07 µM

[N-]=[N+]=NC1OC(=O)C(Cl)=C1N=P(c1ccccc1)(c1ccccc1)c1ccccc1 (stereo not given)
TGI [1]: > 10 µM
TGI [2]: > 10 µM
TGI [3]: > 10 µM
TGI [4]: > 10 µM
TGI [5]: > 10 µM
TGI [6]: > 10 µM
TGI [7]: > 10 µM
TGI [8]: > 10 µM
TGI [9]: > 10 µM
TGI [10]: > 10 µM
TGI [11]: > 10 µM
TGI [12]: > 10 µM

O=C(/C=C/c1cccc(Oc2ccccc2)c1)NCc1ccc(C(=O)NCc2ccccc2)cc1
TGI [1]: > 100 µM
TGI [2]: > 100 µM
TGI [3]: > 100 µM
TGI [4]: > 100 µM
TGI [5]: > 100 µM
TGI [6]: > 100 µM
TGI [7]: > 100 µM
TGI [8]: > 100 µM
TGI [9]: 41 µM
TGI [10]: > 100 µM
TGI [11]: > 100 µM
TGI [12]: > 100 µM

C/C(=N\N=C(\N)SB(F)F)c1ccc2ccccc2c1
TGI [1]: > 100 µM
TGI [2]: > 100 µM
TGI [3]: > 100 µM
TGI [4]: > 100 µM
TGI [5]: > 100 µM
TGI [6]: > 100 µM
TGI [7]: > 100 µM
TGI [8]: > 100 µM
TGI [9]: > 100 µM
TGI [10]: > 100 µM
TGI [11]: > 100 µM
TGI [12]: > 100 µM
